Measurements from patent US20240343694A1, “PYRIMIDINE DERIVATIVE, METHOD FOR PREPARING SAME, AND PHARMACEUTICAL COMPOSITION FOR PREVENTING OR TREATING CANCER COMPRISING SAME AS ACTIVE INGREDIENT” (KOREA RESERARCH INSTITUTE OF CHEMICAL TECHNOLOGY, priority 2021, published 2024).

Tests used:
EGFR del19 = EGFR del19 (Homo sapiens (Human), UniProt P00533, DEL746-750); assay: HTRF inhibitory activity against EGFR mutant enzyme (EGFR del19); format: biochemical; conditions: recombinant enzyme, 37° C. for 2 hours
Sequence of EGFR del19 (P00533 other isoform, or with tags, fused parts or gaps del 1-668/del 746-750 limits assumed): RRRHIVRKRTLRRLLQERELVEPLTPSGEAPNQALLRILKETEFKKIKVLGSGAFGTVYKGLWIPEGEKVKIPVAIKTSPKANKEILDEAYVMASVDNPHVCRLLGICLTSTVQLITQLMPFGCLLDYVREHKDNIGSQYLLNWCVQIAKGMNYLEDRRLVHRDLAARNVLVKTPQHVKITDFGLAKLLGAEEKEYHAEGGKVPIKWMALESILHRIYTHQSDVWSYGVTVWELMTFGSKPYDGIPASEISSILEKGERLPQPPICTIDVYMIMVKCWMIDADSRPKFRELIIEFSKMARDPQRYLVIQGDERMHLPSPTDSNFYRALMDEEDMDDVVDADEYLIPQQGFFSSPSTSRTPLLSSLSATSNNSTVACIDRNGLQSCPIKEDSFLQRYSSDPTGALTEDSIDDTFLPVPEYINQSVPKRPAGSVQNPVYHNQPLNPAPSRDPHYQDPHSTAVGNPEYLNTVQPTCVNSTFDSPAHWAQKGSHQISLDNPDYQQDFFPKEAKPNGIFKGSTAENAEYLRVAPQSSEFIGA
Protocol: (§1) The activity of the compounds of the present invention against EGFR mutant enzymes was measured using the HTRF system purchased from Cisbio as follows. For an EGFR mutant enzyme, the EGFR del19 enzyme was a recombinant protein purchased from Carna Biosciences, and the EGFR A763_Y764insFHEA enzyme was a recombinant protein purchased from SignalChem, respectively.
(§2) The composition of the assay buffer used for activity measurement was 50 mM tris-HCl pH 7.5, 100 mM NaCl, 7.5 mM MgCl2, 3 mM KCl, 0.01% tween 20, 0.1% BSA, and 1 mM DTT. An enzymatic reaction was performed using a peptide substrate labeled with ATP at a concentration of […] and biotin at a concentration of […]. The analysis of the inhibitory effect of the compounds on EGFR activity was performed according to the following method. • Component 1:4 μL of EGFR mutant enzyme • Component 2:2 μL of compound solution • Component 3:4 μL of ATP and a biotin labeled peptide
(§3) The enzyme reaction begins by first mixing component 1 and component 2 and then adding component 3 thereto. After the reaction at 37° C. for 2 hours, […] of a measurement solution consisting of streptavidin-XL665 and a europium-labeled anti-phosphotyrosine antibody purchased from Cisbio was added to the enzyme reaction solution and reacted at room temperature for 1 hour. Finally, the ratio of fluorescence values at 615 nm and 665 nm was measured using Perkin-Elmer's Envision instrument to calculate enzyme activity and confirm the inhibitory ability of the compounds. The measured values at 7 compound concentrations were analyzed using the Prism program (version 5.01, Graphpad Software, Inc.), and the IC50 (μM) values, which are measures of the compounds' inhibitory activity, were calculated.

EGFR A763_Y764insFHEA = EGFR A763_Y764insFHEA (Homo sapiens (Human), UniProt P00533, INS763FHEA); assay: HTRF inhibitory activity against EGFR mutant enzyme (EGFR A763_Y764insFHEA); format: biochemical; conditions: recombinant enzyme, 37° C. for 2 hours
Sequence of EGFR A763_Y764insFHEA (P00533 other isoform, or with tags, fused parts or gaps del 1-694/ins FHEA behind 763 limits assumed): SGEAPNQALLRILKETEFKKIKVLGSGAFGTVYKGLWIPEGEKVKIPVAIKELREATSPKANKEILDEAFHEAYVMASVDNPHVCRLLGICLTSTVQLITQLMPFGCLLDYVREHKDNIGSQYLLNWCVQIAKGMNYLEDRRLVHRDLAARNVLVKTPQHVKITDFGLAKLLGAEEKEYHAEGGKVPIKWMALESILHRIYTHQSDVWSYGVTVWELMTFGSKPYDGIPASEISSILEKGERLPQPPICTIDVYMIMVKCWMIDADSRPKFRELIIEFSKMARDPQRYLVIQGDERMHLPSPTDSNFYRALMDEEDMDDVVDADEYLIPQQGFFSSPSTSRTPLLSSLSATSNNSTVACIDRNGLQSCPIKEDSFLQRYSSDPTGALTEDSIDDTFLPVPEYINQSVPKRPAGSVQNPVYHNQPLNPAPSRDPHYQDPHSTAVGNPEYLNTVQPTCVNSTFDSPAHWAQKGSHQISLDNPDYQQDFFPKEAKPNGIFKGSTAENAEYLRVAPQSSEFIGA
Protocol: as §1, §2, §3

HER2 A775_G776insYVMA = HER2 A775_G776insYVMA (Homo sapiens (Human), UniProt P04626, INS775YVMA); assay: HTRF inhibitory activity against HER2 mutant enzyme; format: biochemical; conditions: recombinant enzyme, 37° C. for 2 hours
Sequence of HER2 A775_G776insYVMA (P04626 other isoform, or with tags, fused parts or gaps del 1-675/ins YVMA behind 775 limits assumed): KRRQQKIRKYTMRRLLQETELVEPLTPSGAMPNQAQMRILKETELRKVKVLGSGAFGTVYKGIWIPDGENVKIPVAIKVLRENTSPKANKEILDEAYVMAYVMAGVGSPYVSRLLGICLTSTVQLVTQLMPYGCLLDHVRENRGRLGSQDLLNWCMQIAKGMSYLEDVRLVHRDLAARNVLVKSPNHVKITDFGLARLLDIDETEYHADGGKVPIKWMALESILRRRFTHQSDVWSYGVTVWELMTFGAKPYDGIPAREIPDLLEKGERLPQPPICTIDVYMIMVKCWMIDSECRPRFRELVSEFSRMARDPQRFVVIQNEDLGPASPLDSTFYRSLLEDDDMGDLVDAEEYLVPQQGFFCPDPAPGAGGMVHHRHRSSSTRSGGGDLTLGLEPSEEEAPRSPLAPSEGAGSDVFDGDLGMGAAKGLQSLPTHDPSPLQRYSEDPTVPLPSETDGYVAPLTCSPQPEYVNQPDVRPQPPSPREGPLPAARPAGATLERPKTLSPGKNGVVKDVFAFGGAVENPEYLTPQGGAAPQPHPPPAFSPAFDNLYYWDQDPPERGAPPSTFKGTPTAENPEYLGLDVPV
Protocol: The activity of the compounds of the present invention against HER mutant enzymes was measured using the HTRF system purchased by Cisbio as follows. As a HER2 mutant enzyme, the HER2 A775_G776insYVMA mutant enzyme was used by purchasing a recombinant protein provided by Carna Biosciences.
as §2, with “mM DTT. In addition thereto, the enzymatic reaction” for “mM DTT. An enzymatic reaction”, “of the activity inhibitory effect” for “of the inhibitory effect”, “compounds on HER2 A775_G776insYVMA mutation was performed” for “compounds on EGFR activity was performed”, “μL of HER2 A775_G776insYVMA mutant enzyme” for “μL of EGFR mutant enzyme”
as §3, with “Finally, the ratio of fluorescence values at 615 nm and 665 nm was measured using Perkin-Elmer's Envision instrument to calculate enzyme activity and confirm the inhibitory ability of the compounds.” left out, “ability,” for “activity,”

[1] = test system: Ba/F3 HER2 A775_G776insYVMA; assay: Growth inhibition of Ba/F3 HER2 mutant cells (CellTiter-Glo); format: cell-based; conditions: Mus musculus, BaF3, 72 hours
Protocol: The activity of the compounds of the present invention against Ba/F3 HER2 A775_G776insYVMA and Ba/F3 HER2 G776delinsVC mutant cell lines was measured using the CellTiter-Glo system purchased from Promega as follows. CellTiter-Glo assay is a method to measure cell viability by monitoring ATP present in cells. Ba/F3 HER2 A775_G776insYVMA and Ba/F3 HER2 G776delinsVC mutant cell lines were purchased from Crown Biosciences. Ba/F3 HER2 A775_G776insYVMA and Ba/F3 HER2 G776delinsVC mutant cell lines were cultured in RPMI containing 10% FBS and 1% penicillin-streptomycin with 1 μg/mL of puromycin in a CO2 incubator at 37° C.
The analysis of the ability of the compounds to inhibit the growth of HER2 mutant cells was performed according to the following method. 1,000 cells/100 μL were seeded in a 96-well cell culture plate, and 24 hours thereafter, the compounds represented by Formula 1 were treated with 0 μM, 0.01 μM, 0.03 μM, 0.1 μM, 0.3 μM, 1 μM, 3 μM, and 10 μM. After reacting for 72 hours, the plate treated with the compounds were left at room temperature for 30 minutes, 100 μL of a reagent was added thereto, and then shaken at room temperature for 10 minutes. Finally, using equipment, the ratio of […] was measured to confirm the cell growth inhibition ability of the compounds. The measured values at 8 compound concentrations were analyzed using the Prism program (version 5.01, Graphpad Software, Inc.), and the IC50 (μM) values, which are measures of the compounds' inhibitory ability, were calculated.

Compound	IC50 (EGFR del19) [nM]	IC50 (EGFR A763_Y764insFHEA) [nM]	IC50 (HER2 A775_G776insYVMA) [nM]	IC50 [1] [nM]
C=CC(=O)Nc1cc(Nc2ncc(Cl)c(Nc3ccccc3NS(=O)(=O)C(C)C)n2)c(OC)cc1N(C)CCN(C)C [Example 5, N-(5-((5-chloro-4-((2-((1-methylethyl)sulfonamido)phenyl)amino)pyrimidin-2-yl)amino)-2-((2-(dimethylamino)ethyl)(methyl)amino)-4-methoxyphenyl)acrylamide]	< 1	< 1	34	30 to 50
C=CC(=O)Nc1cc(Nc2ncc(C)c(Nc3ccccc3NS(=O)(=O)c3ccc(C)cc3)n2)c(OC)cc1N(C)CCN(C)C [Example 17, N-(2-((2-(dimethylamino)ethyl)(methyl)amino)-4-methoxy-5-((5-methyl-4-((2-((4-methylphenyl)sulfonamido)phenyl)amino)pyrimidin-2-yl)amino)phenyl)acrylamide]	10	20	1100	
C=CC(=O)Nc1cc(Nc2ncc(C(=O)OC)c(Nc3cccc4c3N(S(C)(=O)=O)CC4)n2)c(OC)cc1N(C)CCN(C)C [Example 60, methyl 2-((5-acrylamido-4-((2-(dimethylamino)ethyl)(methyl)amino)-2-methoxyphenyl)amino)-4-((1-(methylsulfonyl)indolin-7-yl)amino)pyrimidin-5-carboxylate]	< 1	< 1	10	
COc1cc(N2CCN(C)CC2)c(NC(=O)/C=C/CN(C)C)cc1Nc1ncc(Cl)c(Nc2ccccc2NS(C)(=O)=O)n1 [Example 27, (E)-N-(5-((5-chloro-4-((2-(methylsulfonamido)phenyl)amino)pyrimidin-2-yl)amino)-4-methoxy-2-(4-methylpiperazin-1-yl)phenyl)-4-(dimethylamino)buten-2-amide]	3	9	30	
C=CC(=O)Nc1cc(Nc2ncc(Cl)c(Nc3cccc(CC)c3NS(=O)(=O)CC)n2)c(OC)cc1N(C)CCN(C)C [Example 42, N-(5-((5-chloro-4-((3-ethyl-2-(ethylsulfonamido)phenyl)amino)pyrimidin-2-yl)amino)-2-((2-(dimethylamino)ethyl)(methyl)amino)-4-methoxyphenyl)acrylamide]	< 1	< 1	6	
C=CC(=O)Nc1cc(Nc2ncc(C(=O)OC(C)C)c(Nc3cccc4c3N(S(C)(=O)=O)CCC4)n2)c(OC)cc1N(C)CCN(C)C [Example 52, isopropyl 2-((5-acrylamido-4-((2-(dimethylamino)ethyl)(methyl)amino)-2-methoxyphenyl)amino)-4-((1-(methylsulfonyl)-1,2,3,4-tetrahydroquinolin-8-yl)amino)pyrimidin-5-carboxylate]	< 1	< 1	4	
C=CC(=O)Nc1cc(Nc2nccc(Nc3ccccc3NS(=O)(=O)c3ccc(C)cc3)n2)c(OC)cc1N(C)CCN(C)C [Example 9, N-(2-((2-(dimethylamino)ethyl)(methyl)amino)-4-methoxy-5-((4-((2-((4-methylphenyl)sulfonamido)phenyl)amino)pyrimidin-2-yl)amino)phenyl)acrylamide]	20	90	2400	
COc1cc(N(C)CCN(C)C)c(NC(=O)/C=C/CN(C)C)cc1Nc1ncc(Cl)c(Nc2ccccc2NS(C)(=O)=O)n1 [Example 28, (E)-N-(5-((5-chloro-4-((2-(methylsulfonamido)phenyl)amino)pyrimidin-2-yl)amino)-2-((2-(dimethylamino)ethyl)(methyl)amino)-4-methoxyphenyl)-4-(dimethylamino)buten-2-amide]	< 1	8	70	
C=CC(=O)Nc1cc(Nc2ncc(Cl)c(Nc3ccc4nccnc4c3N(C)S(C)(=O)=O)n2)c(OC)cc1N(C)CCN(C)C [Example 68, N-(5-((5-chloro-4-((5-(N-methylmethylsulfonamido)quinoxalin-6-yl)amino)pyrimidin-2-yl)amino)-2-((2-(dimethylamino)ethyl)(methyl)amino)-4-methoxyphenyl)acrylamide]	< 1	< 1	6	
C=CC(=O)Nc1cc(Nc2ncc(C)c(Nc3ccccc3NS(=O)(=O)c3ccccc3)n2)c(OC)cc1N(C)CCN(C)C [Example 20, N-(2-((2-(dimethylamino)ethyl)(methyl)amino)-4-methoxy-5-((5-methyl-4-((2-(phenylsulfonamido)phenyl)amino)pyrimidin-2-yl)amino)phenyl)acrylamide]	2	6	370	
C=CC(=O)Nc1cc(Nc2ncc(Cl)c(Nc3ccc(C)c(C)c3NS(C)(=O)=O)n2)c(OC)cc1N(C)CCN(C)C [Example 44, N-(5-((5-chloro-4-((3,4-dimethyl-2-(methylsulfonamido)phenyl)amino)pyrimidin-2-yl)amino)-2-((2-(dimethylamino)ethyl)(methyl)amino)-4-methoxyphenyl)acrylamide]	< 1	< 1	6	
C=CC(=O)Nc1cc(Nc2ncc(Cl)c(Nc3cccc4c3N(S(=O)(=O)CC)CC4)n2)c(OC)cc1N(C)CCN1CCC1 [Example 81, N-(2-((2-(azetidin-1-yl)ethyl)(methyl)amino)-5-((5-chloro-4-((1-(ethylsulfonyl)indolin-7-yl)amino)pyrimidin-2-yl)amino)-4-methoxyphenyl)acrylamide]	< 1	< 1	< 1	
C=CC(=O)Nc1cc(Nc2nccc(Nc3ccccc3NS(=O)(=O)CCC)n2)c(OC)cc1N(C)CCN(C)C [Example 8, N-(2-((2-(dimethylamino)ethyl)(methyl)amino)-4-methoxy-5-((4-((2-(propylsulfonamido)phenyl)amino)pyrimidin-2-yl)amino)phenyl)acrylamide]	10	20	920	
C=CC(=O)Nc1cc(Nc2ncc(Cl)c(Nc3cccc4ccn(S(C)(=O)=O)c34)n2)c(OC)cc1N(C)CCN(C)C [Example 67, N-(5-((5-chloro-4-((1-(methylsulfonyl)-1H-indol-7-yl)amino)pyrimidin-2-yl)amino)-2-((2-(dimethylamino)ethyl)(methyl)amino)-4-methoxyphenyl)acrylamide]	< 1	< 1	81	
C=CC(=O)Nc1cc(Nc2ncc(Cl)c(Nc3ccccc3NS(C)(=O)=O)n2)c(OC)cc1N(C)CCN1CCCCC1 [Example 23, N-(5-((5-chloro-4-((2-(methylsulfonamido)phenyl)amino)pyrimidin-2-yl)amino)-4-methoxy-2-(methyl(2-(piperidin-1-yl)ethyl)amino)phenyl)acrylamide]	< 1	3	30	
